Activity calls are given as the source filed them. The calls are words filed in the database; no cut-off is given here.
Tests used:
MOLM-13 [1] = experiment: Antiproliferative activity against human MOLM-13 cells incubated for 48 hrs by CCK-8 assay; assay type: functional, cell-based; settings: MOLM-13, 48 h
MV4-11 [2] = experiment: Antiproliferative activity against human MV4-11 cells incubated for 48 hrs by CCK-8 assay; assay type: functional, cell-based; settings: MV4-11, 48 h
[3] = target: Mast/stem cell growth factor receptor Kit (Homo sapiens) (UniProt P10721); experiment: Inhibition of KIT (unknown origin) at 1000 nM relative to control
[4] = target: Mitogen-activated protein kinase kinase kinase kinase 1 (Homo sapiens) (UniProt Q92918); experiment: Inhibition of HPK1 (unknown origin) at 1000 nM relative to control
[5] = target: CDK7/Cyclin H/MNAT1 (Homo sapiens) (UniProt P51946+P50613+P51948); experiment: Inhibition of CDK7/cyclinH/MAT1 (unknown origin) at 1000 nM relative to control; assay type: protein-complex assay
[6] = target: Serine/threonine-protein kinase 4 (Homo sapiens) (UniProt Q13043); experiment: Inhibition of MST1 (unknown origin) at 1000 nM relative to control
Sequence of Serine/threonine-protein kinase 4 (Homo sapiens) (Q13043 whole entry): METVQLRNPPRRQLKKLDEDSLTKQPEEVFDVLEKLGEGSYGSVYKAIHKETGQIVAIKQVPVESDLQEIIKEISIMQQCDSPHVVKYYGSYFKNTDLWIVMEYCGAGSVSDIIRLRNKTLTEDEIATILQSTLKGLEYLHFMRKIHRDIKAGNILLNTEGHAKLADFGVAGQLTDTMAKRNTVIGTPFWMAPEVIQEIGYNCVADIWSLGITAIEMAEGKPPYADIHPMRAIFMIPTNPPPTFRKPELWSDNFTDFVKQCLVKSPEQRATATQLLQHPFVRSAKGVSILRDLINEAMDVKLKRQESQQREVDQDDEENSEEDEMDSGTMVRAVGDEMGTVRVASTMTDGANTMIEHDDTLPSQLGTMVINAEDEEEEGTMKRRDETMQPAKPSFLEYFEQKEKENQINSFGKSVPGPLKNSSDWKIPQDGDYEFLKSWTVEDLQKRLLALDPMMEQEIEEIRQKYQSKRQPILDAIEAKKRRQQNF

[7] = target: Proto-oncogene tyrosine-protein kinase Src (Homo sapiens) (UniProt P12931); experiment: Inhibition of SRC (unknown origin) at 1000 nM relative to control
[8] = target: Maternal embryonic leucine zipper kinase (Homo sapiens) (UniProt Q14680); experiment: Inhibition of MELK (unknown origin) at 1000 nM relative to control
Sequence of Maternal embryonic leucine zipper kinase (Homo sapiens) (Q14680 whole entry, looked up): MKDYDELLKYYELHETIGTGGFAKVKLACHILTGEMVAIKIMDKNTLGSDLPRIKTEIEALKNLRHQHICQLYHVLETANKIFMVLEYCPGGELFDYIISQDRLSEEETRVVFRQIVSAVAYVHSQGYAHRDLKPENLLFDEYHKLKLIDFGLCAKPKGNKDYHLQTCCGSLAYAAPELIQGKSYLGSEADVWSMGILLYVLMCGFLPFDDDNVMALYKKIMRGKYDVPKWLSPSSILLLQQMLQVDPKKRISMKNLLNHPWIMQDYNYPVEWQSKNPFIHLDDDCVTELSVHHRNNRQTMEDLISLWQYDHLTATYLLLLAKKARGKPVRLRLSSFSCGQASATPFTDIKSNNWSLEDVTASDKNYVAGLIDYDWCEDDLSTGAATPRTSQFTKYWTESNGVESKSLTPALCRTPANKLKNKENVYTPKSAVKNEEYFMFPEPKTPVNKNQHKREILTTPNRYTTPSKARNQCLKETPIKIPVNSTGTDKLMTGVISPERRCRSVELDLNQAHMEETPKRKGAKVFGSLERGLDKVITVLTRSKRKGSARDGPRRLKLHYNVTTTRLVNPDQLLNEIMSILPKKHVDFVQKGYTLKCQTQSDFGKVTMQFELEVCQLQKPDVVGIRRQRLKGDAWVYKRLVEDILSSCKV

[9] = target: Serine/threonine-protein kinase TBK1 (Homo sapiens) (UniProt Q9UHD2); experiment: Inhibition of TBK1 (unknown origin) at 1000 nM relative to control
Sequence of Serine/threonine-protein kinase TBK1 (Homo sapiens) (Q9UHD2 whole entry): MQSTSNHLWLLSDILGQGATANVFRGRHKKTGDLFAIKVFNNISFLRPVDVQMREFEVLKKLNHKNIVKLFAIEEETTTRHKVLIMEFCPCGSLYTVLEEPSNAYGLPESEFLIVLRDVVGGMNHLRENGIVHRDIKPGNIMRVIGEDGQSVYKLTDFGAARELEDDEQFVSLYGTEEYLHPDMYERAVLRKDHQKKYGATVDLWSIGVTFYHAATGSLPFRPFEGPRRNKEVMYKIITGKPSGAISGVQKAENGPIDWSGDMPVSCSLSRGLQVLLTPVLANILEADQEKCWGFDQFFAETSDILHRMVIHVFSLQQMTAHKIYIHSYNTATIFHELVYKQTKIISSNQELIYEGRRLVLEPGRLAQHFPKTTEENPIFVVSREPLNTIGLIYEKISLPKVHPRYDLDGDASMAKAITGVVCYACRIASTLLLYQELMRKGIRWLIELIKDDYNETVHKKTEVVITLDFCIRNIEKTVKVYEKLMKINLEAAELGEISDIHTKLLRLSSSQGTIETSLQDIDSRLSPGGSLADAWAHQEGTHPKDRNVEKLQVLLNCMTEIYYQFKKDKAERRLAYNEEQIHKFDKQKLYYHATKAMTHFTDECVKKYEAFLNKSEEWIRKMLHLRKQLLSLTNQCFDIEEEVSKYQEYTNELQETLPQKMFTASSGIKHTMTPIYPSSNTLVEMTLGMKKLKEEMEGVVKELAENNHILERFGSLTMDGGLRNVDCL

[10] = target: Serine/threonine-protein kinase MARK1 (Homo sapiens) (UniProt Q9P0L2); experiment: Inhibition of MARK1 (unknown origin) at 1000 nM relative to control
Sequence of Serine/threonine-protein kinase MARK1 (Homo sapiens) (Q9P0L2 whole entry, looked up): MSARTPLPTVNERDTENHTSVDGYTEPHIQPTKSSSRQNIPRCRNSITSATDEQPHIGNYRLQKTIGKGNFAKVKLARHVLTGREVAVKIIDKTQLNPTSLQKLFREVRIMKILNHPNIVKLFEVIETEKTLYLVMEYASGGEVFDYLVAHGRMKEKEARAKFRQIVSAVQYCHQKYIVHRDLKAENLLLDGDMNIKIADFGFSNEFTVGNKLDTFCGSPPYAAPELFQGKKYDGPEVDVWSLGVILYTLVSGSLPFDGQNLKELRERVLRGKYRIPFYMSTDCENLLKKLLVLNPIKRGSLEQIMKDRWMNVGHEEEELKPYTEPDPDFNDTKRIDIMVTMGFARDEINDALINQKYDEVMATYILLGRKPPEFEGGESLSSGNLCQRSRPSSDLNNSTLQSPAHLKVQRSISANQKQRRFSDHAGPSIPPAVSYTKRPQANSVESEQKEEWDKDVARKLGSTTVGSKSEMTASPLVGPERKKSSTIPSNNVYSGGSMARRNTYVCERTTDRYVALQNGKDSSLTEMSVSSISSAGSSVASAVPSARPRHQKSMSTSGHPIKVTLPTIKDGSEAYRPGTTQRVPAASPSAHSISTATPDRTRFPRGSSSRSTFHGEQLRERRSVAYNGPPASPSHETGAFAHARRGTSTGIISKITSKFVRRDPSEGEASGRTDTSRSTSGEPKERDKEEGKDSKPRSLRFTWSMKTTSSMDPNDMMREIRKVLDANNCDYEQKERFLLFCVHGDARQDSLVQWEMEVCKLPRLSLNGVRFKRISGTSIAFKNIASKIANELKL

[11] = target: ALK tyrosine kinase receptor (Homo sapiens) (UniProt Q9UM73); experiment: Inhibition of ALK (unknown origin) at 1000 nM relative to control
[12] = target: Mitogen-activated protein kinase 1 (Homo sapiens) (UniProt P28482); experiment: Inhibition of MAPK2 (unknown origin) at 1000 nM relative to control
Sequence of Mitogen-activated protein kinase 1 (Homo sapiens) (P28482 whole entry): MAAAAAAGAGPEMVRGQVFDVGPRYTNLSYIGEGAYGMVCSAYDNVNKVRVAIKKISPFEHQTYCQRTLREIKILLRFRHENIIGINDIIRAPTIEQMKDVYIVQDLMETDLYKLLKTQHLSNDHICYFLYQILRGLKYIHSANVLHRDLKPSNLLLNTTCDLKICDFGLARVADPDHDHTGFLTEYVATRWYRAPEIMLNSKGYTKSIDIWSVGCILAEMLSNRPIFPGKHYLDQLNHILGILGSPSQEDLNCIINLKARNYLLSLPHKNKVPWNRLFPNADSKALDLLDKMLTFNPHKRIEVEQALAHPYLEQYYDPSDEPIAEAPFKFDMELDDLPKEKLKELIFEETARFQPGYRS

[13] = target: Tyrosine-protein kinase JAK3 (Homo sapiens) (UniProt P52333); experiment: Inhibition of JAK3 (unknown origin) at 1000 nM relative to control
[14] = target: Aurora kinase A (Homo sapiens) (UniProt O14965); experiment: Inhibition of AURORA-A (unknown origin) at 1000 nM relative to control
[15] = target: Discoidin domain-containing receptor 2 (Homo sapiens) (UniProt Q16832); experiment: Inhibition of DDR2 (unknown origin) at 1000 nM relative to control
[16] = target: Receptor tyrosine-protein kinase erbB-2 (Homo sapiens) (UniProt P04626); experiment: Inhibition of HER2 (unknown origin) at 1000 nM relative to control
[17] = target: Mitogen-activated protein kinase 8 (Homo sapiens) (UniProt P45983); experiment: Inhibition of JNK1 (unknown origin) at 1000 nM relative to control
Sequence of Mitogen-activated protein kinase 8 (Homo sapiens) (P45983 whole entry): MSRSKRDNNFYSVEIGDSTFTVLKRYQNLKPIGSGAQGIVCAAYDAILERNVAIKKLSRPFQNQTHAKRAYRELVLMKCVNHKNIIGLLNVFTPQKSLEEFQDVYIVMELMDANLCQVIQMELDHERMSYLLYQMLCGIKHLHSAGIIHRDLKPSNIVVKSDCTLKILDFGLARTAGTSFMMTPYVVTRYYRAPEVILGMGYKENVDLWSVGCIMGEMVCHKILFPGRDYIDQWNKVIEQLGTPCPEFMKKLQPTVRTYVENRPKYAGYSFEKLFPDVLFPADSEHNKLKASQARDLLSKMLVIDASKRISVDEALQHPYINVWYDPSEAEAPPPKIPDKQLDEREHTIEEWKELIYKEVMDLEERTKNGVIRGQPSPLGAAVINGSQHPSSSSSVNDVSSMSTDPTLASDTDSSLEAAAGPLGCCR

[18] = target: Mitogen-activated protein kinase 1 (Homo sapiens) (UniProt P28482); experiment: Inhibition of ERK2 (unknown origin) at 1000 nM relative to control
[19] = target: Serine/threonine-protein kinase Chk2 (Homo sapiens) (UniProt O96017); experiment: Inhibition of CHK2 (unknown origin) at 1000 nM relative to control
[20] = target: Rho-associated protein kinase 1 (Homo sapiens) (UniProt Q13464); experiment: Inhibition of ROCK1 (unknown origin) at 1000 nM relative to control
[21] = target: Glycogen synthase kinase-3 alpha (Homo sapiens) (UniProt P49840); experiment: Inhibition of GSK3alpha (unknown origin) at 1000 nM relative to control
[22] = target: Mitogen-activated protein kinase kinase kinase 14 (Homo sapiens) (UniProt Q99558); experiment: Inhibition of NIK (unknown origin) at 1000 nM relative to control
Sequence of Mitogen-activated protein kinase kinase kinase 14 (Homo sapiens) (Q99558 whole entry, looked up): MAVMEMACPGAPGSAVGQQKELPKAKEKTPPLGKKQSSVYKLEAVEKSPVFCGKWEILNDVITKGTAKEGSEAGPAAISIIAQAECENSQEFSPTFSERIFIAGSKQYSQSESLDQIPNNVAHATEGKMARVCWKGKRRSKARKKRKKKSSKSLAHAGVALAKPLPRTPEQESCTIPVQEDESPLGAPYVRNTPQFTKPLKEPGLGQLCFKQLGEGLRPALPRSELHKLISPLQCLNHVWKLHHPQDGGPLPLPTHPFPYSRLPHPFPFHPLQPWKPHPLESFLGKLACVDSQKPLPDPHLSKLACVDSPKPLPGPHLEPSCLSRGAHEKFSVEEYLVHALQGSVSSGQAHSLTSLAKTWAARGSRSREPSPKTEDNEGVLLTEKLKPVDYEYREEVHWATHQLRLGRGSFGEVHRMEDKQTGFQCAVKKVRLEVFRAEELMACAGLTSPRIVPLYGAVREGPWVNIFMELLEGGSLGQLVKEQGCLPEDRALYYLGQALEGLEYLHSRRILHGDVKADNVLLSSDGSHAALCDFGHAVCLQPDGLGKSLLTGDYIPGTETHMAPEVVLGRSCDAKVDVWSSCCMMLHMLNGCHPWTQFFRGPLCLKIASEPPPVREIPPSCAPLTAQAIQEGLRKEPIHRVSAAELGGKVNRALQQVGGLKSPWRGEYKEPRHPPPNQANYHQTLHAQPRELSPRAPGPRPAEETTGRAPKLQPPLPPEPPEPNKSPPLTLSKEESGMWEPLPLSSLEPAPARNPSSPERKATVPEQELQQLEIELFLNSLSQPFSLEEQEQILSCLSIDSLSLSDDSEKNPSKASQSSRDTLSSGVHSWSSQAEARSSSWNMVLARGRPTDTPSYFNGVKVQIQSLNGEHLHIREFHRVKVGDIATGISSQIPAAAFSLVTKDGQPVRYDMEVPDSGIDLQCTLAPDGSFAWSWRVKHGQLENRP

[23] = target: Hepatocyte growth factor receptor (Homo sapiens) (UniProt P08581); experiment: Inhibition of C-MET (unknown origin) at 1000 nM relative to control
[24] = target: Casein kinase I isoform alpha-like (Homo sapiens) (UniProt Q8N752); experiment: Inhibition of CK1A1 (unknown origin) at 1000 nM relative to control
[25] = target: RAC-alpha serine/threonine-protein kinase (Homo sapiens) (UniProt P31749); experiment: Inhibition of AKT1 (unknown origin) at 1000 nM relative to control
Sequence of RAC-alpha serine/threonine-protein kinase (Homo sapiens) (P31749 whole entry): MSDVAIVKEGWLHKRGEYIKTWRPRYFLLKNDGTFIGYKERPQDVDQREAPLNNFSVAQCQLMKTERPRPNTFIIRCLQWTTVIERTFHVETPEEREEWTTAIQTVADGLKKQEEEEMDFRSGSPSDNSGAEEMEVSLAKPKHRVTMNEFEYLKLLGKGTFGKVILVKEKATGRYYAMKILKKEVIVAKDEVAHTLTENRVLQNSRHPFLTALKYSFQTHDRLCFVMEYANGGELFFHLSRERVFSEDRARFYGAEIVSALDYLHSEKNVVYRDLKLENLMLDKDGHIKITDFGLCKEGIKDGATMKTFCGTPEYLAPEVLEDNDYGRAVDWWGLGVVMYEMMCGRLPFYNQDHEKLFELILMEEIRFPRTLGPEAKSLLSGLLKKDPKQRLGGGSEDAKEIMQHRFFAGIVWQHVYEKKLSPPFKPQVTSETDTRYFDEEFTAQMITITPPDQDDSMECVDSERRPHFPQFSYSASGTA

MOLM-13 [26] = experiment: Induction of apoptosis in human MOLM-13 cells at 10 nM after 48 hrs by Annexin-V/PI staining based flow cytometry; assay type: functional, cell-based
MV4-11 [27] = experiment: Induction of apoptosis in human MV4-11 cells at 10 nM after 48 hrs by Annexin-V/PI staining based flow cytometry; assay type: functional, cell-based
[28] = system: Receptor-type tyrosine-protein kinase FLT3 (Homo sapiens), P36888 [UNDEFINED MUTATION]; experiment: Induction of FLT3-ITD degradation in human MV4-11 cells measured upto 18 hrs by Western blot analysis; assay type: cell-based; settings: time hrs <=18

Structure (SMILES): CN1CCN(c2ccc3nc(-c4c(N)c5c(F)cccc5[nH]c4=O)[nH]c3c2)CC1 [DOVITINIB]
- IC50 (MOLM-13 [1]): 0.795 µM
- IC50 (MV4-11 [2]): 0.184 µM
- inhibition [3]: 98%
- inhibition [4]: 94%
- inhibition [5]: 85%
- inhibition [6]: 82%
- inhibition [7]: 79%
- inhibition [8]: 70%
- inhibition [9]: 64%
- inhibition [10]: 57%
- inhibition [11]: 55%
- inhibition [12]: 54%
- inhibition [13]: 54%
- inhibition [14]: 38%
- inhibition [15]: 38%
- inhibition [16]: 37%
- inhibition [17]: 33%
- inhibition [18]: 31%
- inhibition [19]: 25%
- inhibition [20]: 23%
- inhibition [21]: 20%
- inhibition [22]: 2%
- inhibition [23]: 14%
- inhibition [24]: 10%
- inhibition [25]: 4%
- Activity (MOLM-13 [26]): inactive
- Activity (MV4-11 [27]): inactive

Structure (SMILES): C[C@@H]1C[C@@H]([C@H](O)CC2CC(=O)NC(=O)C2)C(=O)[C@@H](C)C1
- Activity [28]: inactive

From ChEMBL document CHEMBL4840352 (J Med Chem, 2021)
